Measurements published in article PMC9234671, “Molecular determinants of αVβ5 localization in flat clathrin lattices – role of αVβ5 in cell adhesion and proliferation” (Journal of Cell Science, 2022).

Assays:
[1] = tested on: GEF-H1 (phospho S886) in PA-JEB and PA-JEB/β4 keratinocytes; experiment: Western blot: GEF-H1 phosphorylation; type: cell-based, human; details: after calyculin A, n=3
Method: Proteins were separated by electrophoresis using a Bolt Novex 4–12% gradient Bis-Tris gels (Invitrogen) or 15% SDS-PAGE gels (made in-house), transferred to Immobilon-P transfer membranes (Millipore Corp) and blocked for at least 30 min in 2% BSA in TBST buffer (10 mM Tris-HCl pH 7.5, 150 mM NaCl and 0.3% Tween-20). Primary antibody (diluted 1:1000 in 2% BSA in TBST buffer) incubation took place overnight at 4°C. After washing twice with TBST and twice with TBS, blots were incubated for 1 h hour at room temperature with horseradish peroxidase-conjugated goat anti-mouse-IgG or goat anti-rabbit-IgG (diluted 1:3000 in 2% BSA in TBST buffer). After subsequent washing steps, the bound antibodies were detected by enhanced chemiluminescence using SuperSignal™ West Dura Extended Duration Substrate (ThermoFisher) or Clarity™ Western ECL Substrate (Bio-Rad) as described by the manufacturer. Signal intensities were quantified using ImageJ.
Fig. S4. (A) Representative western blots of phosphorylated myosin light chain (MLC) and GAPDH in PA-JEB/β4 keratinocytes treated with DMSO versus Nocodazole. […]
μm. Quantifications of β5 or β5 mutants clustering in FAs are shown in (C-E). […] Total cells analyzed per condition: 90 (WT, DMSO), 111 (WT, Noco.) (C), 40 (S>E, DMSO), 80 (S>E, Noco.) (D), 65 (S>A, DMSO), 82 (S>A, Noco.) (E). […]

[2] = tested on: β5 Ser-759/762 phosphorylation; experiment: Mass spectrometry of β5 immunoprecipitates: β5 phosphorylation; type: cell-based, human
Source text: Journal of Cell Science | Peer review history […]
opinion most interesting findings linked to the serine/threonine phosphorylation sites.
Response: We have now changed the t itle and abstract to better emphasize the interesting and novel findings (page 1 -2).
Reviewer 2 Comments for the author...
There are some points that the authors may want to consider: […]
only very limited binding to kindlin-1/2. Furthermore, the phosphomimetic β5-S759/762E mutant promotes localization in FCLs. In the BirA experiments, the authors detect no biotinylation of clathrin adaptors ARH and NUMB with the b5/b1 or b5/b1 chimeras, in contrast to the b5 wt. Is this also the case for clathrin or AP2-mu, established components of FCL?
Response: We thank the reviewer for his/her useful remark. […]
The peptide pull-downs in figure 2 are a little problematic given the high Bg binding of NUMB and ARH to the b1 scr peptide. […] In addition, quantifications from several biological repeats of the pulldowns might help t o establish the reproducibility and statistical significance of the differences indicated by the authors in the text. […]
Figure 3. […] Specifically, we assessed whether phosphorylation of […]
of β5 at S759 and S762 could be detected (discussed in the middle of page 13).
Figure 4. is there a reason for using talin rather than vinculin staining as a FA marker here? […] Could this be analysed and mentioned in the text? […]

Question: What does the source list for `COC[C@@H]([C@H](O)[C@H](O)C(=O)NCC[C@H](C)c1nc(/C=C/C[C@@H]2O[C@]3(C[C@@H](O)[C@@H]2C)O[C@H]([C@H](C[C@H](O)[C@H](C)[C@H](O)[C@H](C)/C=C(C)/C(C)=C/C=C/C(C)=C\C#N)OC)[C@H](OP(=O)(O)O)C3(C)C)co1)N(C)C` [calyculin A]?
Answer: phosphorylation of GEF-H1 [1]: increase in the phosphorylation of GEF-H1; detection of β5 phosphorylation at S759 and S762 ([2]; 25 nM calyculin for 20 min, PA-JEB/β4 keratinocytes, anti-β5 immunoprecipitation, MS/MS): no phosphorylation; detection of β5 phosphorylation at Ser-759/762 ([2]; calyculin A-treated cells, mass spectrometry of β5 immunoprecipitates): unsuccessful
